What is called Kd is the concentration at which binding is half-saturated.

Like-named read-outs stand apart in the source and are kept apart here. Where a SMILES comes first, the peptide text is derived from it. Where no end group is shown, it is not given here. [ ]: non-standard residue; d: D form. Lys(Me3) = C[N+](C)(C)CCCC[C@H](N)C(=O)O; Lys(Me2) = CN(C)CCCC[C@H](N)C(=O)O

The results in this text go back to article PMC3469418, “New Partners in Regulation of Gene Expression: The Enhancer of Trithorax and Polycomb Corto Interacts with Methylated Ribosomal Protein L12 Via Its Chromodomain” (PLoS Genetics, 2012).

Test [1] concerns the target T1, Corto chromodomain (GST-CortoCD) (Drosophila melanogaster, UniProt P41046).
T1 construct: Over-expression of the Corto chromodomain (CortoCD); made in house
T1 sequence (P41046 127-203 limits assumed): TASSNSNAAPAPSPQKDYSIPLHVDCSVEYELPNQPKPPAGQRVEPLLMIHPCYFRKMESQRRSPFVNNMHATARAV
The test is described as follows: Biacore real-time binding of peptides to immobilized GST-CortoCD. The following applies: for kon: pH 7.4, Figure 5B, Biacore 3000, CM5 chip, peptides 1 to 10 µM in running buffer (10 mM Hepes pH7.4, 150 mM NaCl), 5 µL/min for 5 min, 1:1 Langmuir fit, read-out: CortoCD Ka. Here is the method:
(§1) To test whether Corto directly interacted with RPL12 lysine 3, we measured real-time binding between CortoCD and several RPL12 peptides using Biacore. GST-CortoCD and GST were immobilized on a CM5 sensor chip. Then, several RPL12 peptides [unmodified (RPL12um), methylated on lysine 3 (RPL12K3me2, RPL12K3me3), methylated on lysine 10 (RPL12K10me3) or lysine 3 mutated (RPL12K3A)] were assayed for their binding to GST-CortoCD or GST (Figure 5, Figure S3).
(D) Equilibrium dissociation constant (KD) calculated from CortoCD or HP1CD interacting with unmethylated or trimethylated histone H3 peptides. For H3K9me3, peptide concentration was increased from 0 to 1 µM. For RPL12 and H3K27me3 peptide concentration was increased from 0 to 10 µM. NB: no binding; nd: not determined.
(§2) GST or GST fusion proteins were dialyzed using a Slide-A-Lyser cassette (Thermo Scientific) in running buffer (10 mM Hepes pH7.4, 150 mM NaCl, 3 mM EDTA, 0.005% P20 surfactant) (GE Healthcare). Real-time protein interaction assays were performed using a Biacore 3000. Kinetics and binding tests were first performed on empty surfaces. Data presented here result from substraction of empty surface RU (1 to 5 depending on the experiment) from active surface RU. GST was covalently coupled to a CM5 sensor chip (GE Healthcare) via its N-terminal amino acid. The carboxymethylated dextran surface was activated by injecting a mixture of 0.2 M 1-ethyl-3-(3-dimethylaminopropyl) and 0.05 M N-hydroxysuccinimide. GST was immobilized on the chip by injecting a 30 µg.mL^−1 solution in NaAc pH5 buffer. GST-CortoCD and GST-HP1CD were immobilized by injecting a 100 µg.mL^−1 solution in the same buffer. Binding tests were performed by injecting peptides at 1 or 10 µM in running buffer at a flow rate of 5 µL.min^−1 during 5 min. Kinetic assays were performed only when the binding test was positive. […] To calculate association constants, peptides were diluted in series from 1 to 10 µM in running buffer and dilutions were injected sequentially at a flow rate of 5 µL.mn^−1 during 5 min. Dissociation kinetics were then run during 10 min to calculate dissociation constants. Between assays, the chip was regenerated with 10 mM glycine pH2.0. Kinetic constants were calculated with BIAevaluation Software (Biacore) using the Fit kinetic simultaneous ka/kd (1∶1 binding; Langmuir algorithm). RPL12 peptides were synthesized at the IFR83 Peptide synthesis facility (Table S13). Histone peptides were provided by Diagenode (H3K27me3: sp-069-050; H3K4me3: sp-003-050; H3K9me3: sp-056-050; H3K4/K9um: sp-999-050; H3K27um: sp-998-050).
(In general: In SPR one partner is held on a chip, and binding of the other changes the refractive index at the surface.)

The target in test [2] is HP1 chromodomain (GST-HP1CD) (Drosophila melanogaster, UniProt P05205). Description: Biacore real-time binding of peptides to immobilized GST-HP1CD. Here is the method:
Figure 5 Preferential binding of Corto chromodomain to RPL12 trimethylated on lysine 3. (A) Biacore sensorgrams showing binding of either RPL12 unmethylated peptide (RPL12 um, left panel) or RPL12 peptide trimethylated on lysine 3 (RPL12K3me3, right panel) to CortoCD. Increasing concentrations of RPL12 um or RPL12K3me3 peptides were used [from 0 (light grey lines) to 10 µM (darker grey to black lines]. Binding (Y-axis, Response) is expressed in Resonance Units (RU) relative to time (X-axis). Note the response due to end of injection of the peptides at 300 s. (B) Kinetic parameters of interaction between CortoCD and RPL12 um, RPL12K3me2 or RPL12K3me3 peptides. Note that CortoCD interacts specifically with RPL12 trimethylated on lysine 3 (KD = 8 µM). (C) Equilibrium dissociation constant (KD) calculated for CortoCD or HP1CD in interaction with RPL12 um peptide, RPL12 methylated peptides, or RPL12K3A peptide. Note that CortoCD specifically binds to RPL12K3me3 (KD<100 µM). (D) Equilibrium dissociation constant (KD) calculated from CortoCD or HP1CD interacting with unmethylated or trimethylated histone H3 peptides. For H3K9me3, peptide concentration was increased from 0 to 1 µM. For RPL12 and H3K27me3 peptide concentration was increased from 0 to 10 µM. NB: no binding; nd: not determined. TEXT PRINTED IN THE PICTURE: (B) RpL12um: CortoCD Ka ( M^-1s^-1): 1.2; CortoCD Kd ( s^-1): 7.6.10^-4; CortoCD KD (μM): 624 | (B) RpL12K3me2: CortoCD Ka ( M^-1s^-1): 4.1; CortoCD Kd ( s^-1): 9.9.10^-4; CortoCD KD (μM): 238 | (B) RpL12K3me3: CortoCD Ka ( M^-1s^-1): 106; CortoCD Kd ( s^-1): 8.2.10^-4; CortoCD KD (μM): 8 | (C) RpL12um: CortoCD: 624; HP1CD: > 1000 | (C) RpL12K3me2: CortoCD: 238 | (C) RpL12K3me3: CortoCD: 8; HP1CD: 292 | (C) RpL12K10me3: CortoCD: NB; HP1CD: NB | (C) RpL12K3A: CortoCD: NB; HP1CD: NB | (D) H3K4me3: CortoCD: NB; HP1CD: NB | (D) H3K9me3: CortoCD: NB; HP1CD: 0.4 | (D) H3K27me3: CortoCD: NB; HP1CD: 0.7 | (D) H3um: CortoCD: NB; HP1CD: NB | (D) H3K27um: CortoCD: NB; HP1CD: NB DOUBTS OF THE COPYIST ABOUT THIS PICTURE: Panels C and D: the picture prints no measure or unit for the table values, so they are given with the row head only / Panel C, RpL12K3me2, HP1CD: the cell prints 'nd', which is not a result and is left out
To investigate whether RPL12K3me3 could bind to other chromodomains, we repeated these experiments using that of HP1 (HP1CD). GST-HP1CD was immobilized on the sensor chip and binding of either RPL12, RPL12K3me3, RPL12K10me3 or RPL12K3A was tested. None of these peptides specifically interacted with HP1CD (KD>200 µM) (Figure 5C, Figure S3). […] No binding of unmodified H3, H3K27me3, H3K9me3 or H3K4me3 peptides was observed (Figure 5D) while, as expected, the H3K9me3 peptide bound HP1CD with high affinity (KD = 0.4 µM).
GST or GST fusion proteins were dialyzed using a Slide-A-Lyser cassette (Thermo Scientific) in running buffer (10 mM Hepes pH7.4, 150 mM NaCl, 3 mM EDTA, 0.005% P20 surfactant) (GE Healthcare). Real-time protein interaction assays were performed using a Biacore 3000. Kinetics and binding tests were first performed on empty surfaces. Data presented here result from substraction of empty surface RU (1 to 5 depending on the experiment) from active surface RU. GST was covalently coupled to a CM5 sensor chip (GE Healthcare) via its N-terminal amino acid. The carboxymethylated dextran surface was activated by injecting a mixture of 0.2 M 1-ethyl-3-(3-dimethylaminopropyl) and 0.05 M N-hydroxysuccinimide. […]

The target in the next test is T2, GST (Schistosoma japonicum, UniProt P08515).
T2 construct: made in house
The test is described as follows: Biacore real-time binding of peptides to immobilized GST (control surface). Particulars: binding test, peptides at 1 or 10 µM. Here is the method:
as §1
as §2, with “RPL12 peptides were synthesized at the IFR83 Peptide synthesis facility (Table S13). Histone peptides were provided by Diagenode (H3K27me3: sp-069-050; H3K4me3: sp-003-050; H3K9me3: sp-056-050; H3K4/K9um: sp-999-050; H3K27um: sp-998-050).” left out

Setting [3] is: >200 µM = no specific interaction, read-out: KD for HP1CD.

T2 sequence (P08515 whole entry): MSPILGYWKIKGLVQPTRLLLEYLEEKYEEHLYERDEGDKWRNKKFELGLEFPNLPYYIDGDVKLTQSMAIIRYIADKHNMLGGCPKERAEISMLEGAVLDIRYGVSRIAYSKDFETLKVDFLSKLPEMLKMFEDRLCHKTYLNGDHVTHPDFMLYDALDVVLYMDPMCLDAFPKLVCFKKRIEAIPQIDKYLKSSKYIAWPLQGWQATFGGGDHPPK
HP1 chromodomain (GST-HP1CD), sequence (P05205 24-82 limits assumed): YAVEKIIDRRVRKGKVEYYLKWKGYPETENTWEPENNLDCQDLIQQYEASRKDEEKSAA

As to `CC(C)C[C@H](NC(=O)[C@H](Cc1ccc(O)cc1)NC(=O)[C@@H](NC(=O)[C@H](CC(C)C)NC(=O)[C@H](CCCCN)NC(=O)[C@@H](NC(=O)[C@H](CCC(=O)O)NC(=O)[C@@H](NC(=O)[C@@H]1CCCN1C(=O)[C@H](CC(=O)O)NC(=O)[C@H](Cc1ccccc1)NC(=O)[C@H](CCCCN(C)C)NC(=O)[C@@H]1CCCN1C(=O)[C@@H]1CCCN1)[C@@H](C)O)C(C)C)C(C)C)C(=O)N[C@@H](CCCNC(=N)N)C(=O)N[C@@H](CS)C(=O)N[C@H](C(=O)NCC(=O)NCC(=O)N[C@@H](CCC(=O)O)C(=O)N[C@H](C(=O)NCC(=O)N[C@@H](C)C(=O)O)C(C)C)C(C)C` [RpL12K3me2] (H-PP[Lys(Me2)]FDPTEVKLVYLRCVGGEVGA-OH), in test [1], the Kd was above 200 µM and the kon worked out at 4.1 M⁻¹ s⁻¹.

For the compound `CC(C)C[C@H](NC(=O)[C@H](Cc1ccc(O)cc1)NC(=O)[C@@H](NC(=O)[C@H](CC(C)C)NC(=O)[C@H](CCCCN)NC(=O)[C@@H](NC(=O)[C@H](CCC(=O)O)NC(=O)[C@@H](NC(=O)[C@@H]1CCCN1C(=O)[C@H](CC(=O)O)NC(=O)[C@H](Cc1ccccc1)NC(=O)[C@H](CCCC[N+](C)(C)C)NC(=O)[C@@H]1CCCN1C(=O)[C@@H]1CCCN1)[C@@H](C)O)C(C)C)C(C)C)C(=O)N[C@@H](CCCNC(=N)N)C(=O)N[C@@H](CS)C(=O)N[C@H](C(=O)NCC(=O)NCC(=O)N[C@@H](CCC(=O)O)C(=O)N[C@H](C(=O)NCC(=O)N[C@@H](C)C(=O)O)C(C)C)C(C)C` [RpL12K3me3] (H-PP[Lys(Me3)]FDPTEVKLVYLRCVGGEVGA-OH), in test [1], binding was characterised by a dissociation constant (Kd) of 8 µM and the kon is 106 M⁻¹ s⁻¹. Besides, in test [2] (setting [3]), the dissociation constant (Kd) is above 200 µM.

Take `CC(C)C[C@H](NC(=O)[C@H](Cc1ccc(O)cc1)NC(=O)[C@@H](NC(=O)[C@H](CC(C)C)NC(=O)[C@H](CCCC[N+](C)(C)C)NC(=O)[C@@H](NC(=O)[C@H](CCC(=O)O)NC(=O)[C@@H](NC(=O)[C@@H]1CCCN1C(=O)[C@H](CC(=O)O)NC(=O)[C@H](Cc1ccccc1)NC(=O)[C@H](CCCCN)NC(=O)[C@@H]1CCCN1C(=O)[C@@H]1CCCN1)[C@@H](C)O)C(C)C)C(C)C)C(=O)N[C@@H](CCCNC(=N)N)C(=O)N[C@@H](CS)C(=O)N[C@H](C(=O)NCC(=O)NCC(=O)N[C@@H](CCC(=O)O)C(=O)N[C@H](C(=O)NCC(=O)N[C@@H](C)C(=O)O)C(C)C)C(C)C` [RpL12K10me3] (H-PPKFDPTEV[Lys(Me3)]LVYLRCVGGEVGA-OH): the “binding of RPL12 peptides to GST (in words)” value (“binding of RPL12 peptides” for short) at GST was “None of these peptides bound GST”. The equilibrium dissociation constant (Kd) in test [1] and in test [2] (setting [3]) was above 200 µM throughout.

For H-PPAFDPTEVKLVYLRCVGGEVGA-OH [RpL12K3A], on GST, the “binding of RPL12 peptides” value is on record as “None of these peptides bound GST”. The Kd in test [1] and in test [2] (setting [3]) was above 200 µM each time.

Consider PPKFDPTEVKLVYLRCVGGEVGA [RpL12um], for which the “binding of RPL12 peptides” value on GST was “None of these peptides bound GST”. Further, the equilibrium dissociation constant (Kd) was above 200 µM in test [1]; above 200 µM in test [2] (setting [3]); above 1000 µM in test [2] (Figure 5C, RPL12 peptides 0 to 10 µM, NB = no binding, read-out: Equilibrium dissociation constant (KD), HP1CD). Besides, the kon in test [1] is 1.2 M⁻¹ s⁻¹.
